Measured values as given in ChEMBL document CHEMBL1921729, “A small nonrule of 3 compatible fragment library provides high hit rate of endothiapepsin crystal structures with various fragment chemotypes” (J Med Chem, 2011).

Legend:
[1] = target: T1, Endothiapepsin (Cryphonectria parasitica) (UniProt P11838); test: Inhibition of Cryphonectria parasitica endothiapepsin using Abz-Thr-Ile-Nle-p-nitro-Phe-Gln-Arg-NH2 as substrate at 1 mM by fluorescence spectrophotometry analysis
T1 sequence (whole entry): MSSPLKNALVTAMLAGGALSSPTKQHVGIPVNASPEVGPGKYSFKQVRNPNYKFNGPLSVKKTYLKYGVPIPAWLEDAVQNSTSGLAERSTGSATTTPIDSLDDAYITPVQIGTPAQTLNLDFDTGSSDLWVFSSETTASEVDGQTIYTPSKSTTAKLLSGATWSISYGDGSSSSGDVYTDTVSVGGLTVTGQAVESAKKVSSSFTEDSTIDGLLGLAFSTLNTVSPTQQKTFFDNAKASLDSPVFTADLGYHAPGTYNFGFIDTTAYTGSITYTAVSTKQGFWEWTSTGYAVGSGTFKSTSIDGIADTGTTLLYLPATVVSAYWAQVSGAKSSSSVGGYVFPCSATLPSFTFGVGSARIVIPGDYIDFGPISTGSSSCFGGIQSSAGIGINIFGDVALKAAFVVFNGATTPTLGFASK

[2] = Solubility of the compound in aqueous buffer at pH 7.4 by UV spectrophotometry; assay type: physicochemical

Compound	inhibition [1] [%]	solubility [2] [µM]
OC(COCc1ccccc1F)CN1CCCC1 (configuration not stated)	87	> 1500
c1cc(CNc2ccc3c(c2)OCCO3)ccn1	50	> 1500
CNCc1ccc(Oc2cccnc2)o1	66	> 1500
O=C(CN1CCCCC1)Nc1ccc2c(c1)OCO2	49	> 1500
NC1=NCc2ccccc21	89	> 1500
O=C(Cc1cn2ccccc2n1)Nc1ccccc1	84	> 1500
N=C(N)SCc1ccccc1Cl	93	> 1500

More lines, now with the values ahead:

inhibition [1] [%]	solubility [2] [µM]	Compound
45	> 1500	N=C(N)c1ccc(C(F)(F)F)cc1
89	> 1500	CCN(CC)c1ccc(C(=O)NN)cc1
51	> 1500	O=C(Cc1ccccc1)Nn1cnc2ccccc21
84	> 1500	N=C(N)SCc1ccc(Cl)cc1
